Laboratory results reported in patent publication US20220380338A1, “CYCLOALKYL 3-OXOPIPERAZINE CARBOXAMIDES AND CYCLOHETEROALKYL 3-OXOPIPERAZINE CARBOXAMIDES AS NAV1.8 INHIBITORS” (Merck Sharp & Dohme LLC, priority 2021, published 2022).

target: T1, human NaV1.8 (Homo sapiens, UniProt Q9Y5Y9); assay: Nav1.8 Qube® Assay (automated 384-well patch-clamp, inhibition of sodium current); format: cell-based; details: human NaV1.8 channels stably expressed in HEK 293 cells, room temperature
T1 construct: expressed in transfected cells
T1 sequence (Q9Y5Y9 whole entry): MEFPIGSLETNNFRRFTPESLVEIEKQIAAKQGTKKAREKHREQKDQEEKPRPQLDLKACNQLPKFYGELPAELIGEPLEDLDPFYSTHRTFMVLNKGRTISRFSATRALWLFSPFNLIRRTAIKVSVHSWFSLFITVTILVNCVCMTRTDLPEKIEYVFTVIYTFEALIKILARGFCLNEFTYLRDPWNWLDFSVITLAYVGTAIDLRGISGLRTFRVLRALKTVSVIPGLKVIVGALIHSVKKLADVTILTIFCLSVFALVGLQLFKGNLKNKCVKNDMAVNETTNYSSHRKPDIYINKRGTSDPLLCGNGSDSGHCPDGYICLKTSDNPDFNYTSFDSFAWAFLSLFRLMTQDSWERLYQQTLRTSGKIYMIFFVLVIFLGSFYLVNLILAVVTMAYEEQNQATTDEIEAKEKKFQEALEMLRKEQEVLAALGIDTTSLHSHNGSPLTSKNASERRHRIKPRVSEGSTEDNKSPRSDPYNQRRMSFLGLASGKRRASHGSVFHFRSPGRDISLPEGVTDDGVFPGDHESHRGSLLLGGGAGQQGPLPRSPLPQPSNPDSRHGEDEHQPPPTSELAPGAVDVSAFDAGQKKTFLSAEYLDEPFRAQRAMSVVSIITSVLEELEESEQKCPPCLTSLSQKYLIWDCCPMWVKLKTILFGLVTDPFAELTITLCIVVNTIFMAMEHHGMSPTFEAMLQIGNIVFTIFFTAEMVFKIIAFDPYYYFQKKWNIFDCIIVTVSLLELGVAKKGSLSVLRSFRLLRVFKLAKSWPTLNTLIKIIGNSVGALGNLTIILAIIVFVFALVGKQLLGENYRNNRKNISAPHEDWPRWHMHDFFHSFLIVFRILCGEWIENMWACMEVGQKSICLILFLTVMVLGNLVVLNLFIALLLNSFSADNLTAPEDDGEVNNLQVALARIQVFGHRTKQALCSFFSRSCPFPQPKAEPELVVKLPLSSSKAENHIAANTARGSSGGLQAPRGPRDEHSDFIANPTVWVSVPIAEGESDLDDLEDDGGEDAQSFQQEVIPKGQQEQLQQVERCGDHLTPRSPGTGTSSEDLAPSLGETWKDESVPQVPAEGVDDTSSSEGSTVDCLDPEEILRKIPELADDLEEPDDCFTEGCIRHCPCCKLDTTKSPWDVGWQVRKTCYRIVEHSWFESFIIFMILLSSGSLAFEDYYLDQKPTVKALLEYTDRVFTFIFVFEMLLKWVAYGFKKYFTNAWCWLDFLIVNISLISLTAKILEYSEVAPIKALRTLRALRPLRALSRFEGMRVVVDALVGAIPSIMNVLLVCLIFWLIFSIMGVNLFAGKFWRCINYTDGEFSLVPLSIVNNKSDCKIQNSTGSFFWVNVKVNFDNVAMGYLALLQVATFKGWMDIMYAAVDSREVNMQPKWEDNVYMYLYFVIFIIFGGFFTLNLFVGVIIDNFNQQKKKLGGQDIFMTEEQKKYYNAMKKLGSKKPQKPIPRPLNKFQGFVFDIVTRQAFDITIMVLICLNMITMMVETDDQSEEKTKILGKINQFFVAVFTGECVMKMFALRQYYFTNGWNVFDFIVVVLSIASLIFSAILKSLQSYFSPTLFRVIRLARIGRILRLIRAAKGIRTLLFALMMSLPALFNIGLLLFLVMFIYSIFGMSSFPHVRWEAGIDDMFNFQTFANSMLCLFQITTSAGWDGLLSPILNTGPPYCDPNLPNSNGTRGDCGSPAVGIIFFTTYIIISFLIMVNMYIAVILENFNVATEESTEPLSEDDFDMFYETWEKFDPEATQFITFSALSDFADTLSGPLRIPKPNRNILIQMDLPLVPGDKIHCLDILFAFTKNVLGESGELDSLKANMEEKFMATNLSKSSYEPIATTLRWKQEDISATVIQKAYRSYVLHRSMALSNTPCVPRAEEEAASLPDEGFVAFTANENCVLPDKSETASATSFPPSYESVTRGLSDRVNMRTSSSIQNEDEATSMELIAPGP
Procedure, shortened: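 Whole-cell voltage clamp at room temperature in HEK293 cells stably expressing NaV1.8; from −90 mV hold, 10 s 1 Hz train of 20 ms pulses to 10 mV with 980 ms repolarization to −67 mV. Peak currents of 1st and 10th pulses give resting and inactivated-state IC50s, Hill fit.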

SMILES | IC50 [nM]
C[C@@H]1C(=O)NCCN1C(=O)NC(c1ccc(F)c(Cl)c1)C1CC(OC(F)F)C1 (single isomer, unassigned) [Example 38B, (2R)-N-((R or S)-(3-chloro-4-fluorophenyl) (cis-3-(difluoromethoxy)cyclobutyl)methyl)-2-methyl-3-oxopiperazine-1-carboxamide] | 158
C[C@@H]1C(=O)NCCN1C(=O)NC(c1ccc(F)c(Cl)c1)C1CC(OC(F)F)C1 (single isomer, unassigned) [Example 38C, (2R)-N-((S or R)-(3-chloro-4-fluorophenyl) (cis-3-(difluoromethoxy)cyclobutyl)methyl)-2-methyl-3-oxopiperazine-1-carboxamide] | 87.1
C[C@@H]1C(=O)NCCN1C(=O)NC(c1ccc(F)c(Cl)c1)C1CC(OC(F)F)C1 (single isomer, unassigned) [Example 38D, (2R)-N-((S or R)-(3-chloro-4-fluorophenyl)-(trans-3-(difluoro-methoxy)cyclobutyl)-methyl)-2-methyl-3-oxopiperazine-1-carboxamide] | 17.9
C[C@@H]1C(=O)NCCN1C(=O)NC(c1ccc(F)c(Cl)c1F)C1CC(OC(F)F)C1 (single isomer, unassigned) [Example 39A, (2R)-N-((R or S)-(3-chloro-2,4-difluoro-phenyl)(trans-3-(difluoromethoxy)-cyclobutyl)methyl)-2-methyl-3-oxopiperazine-1-carboxamide] | 816
C[C@@H]1C(=O)NCCN1C(=O)NC(c1ccc(F)c(Cl)c1F)C1CC(OC(F)F)C1 (single isomer, unassigned) [Example 39B, (2R)-N-((R or S)-(3-chloro-2,4-difluoro-phenyl)(cis-3-(difluoro-methoxy)cyclobutyl)-methyl)-2-methyl-3-oxopiperazine-1-carboxamide] | 916
C[C@@H]1C(=O)NCCN1C(=O)NC(c1ccc(F)c(Cl)c1F)C1CC(OC(F)F)C1 (single isomer, unassigned) [Example 39C, (2R)-N-((S or R)-(3-chloro-2,4-difluoro-phenyl)(cis-3-(difluoro-methoxy)cyclobutyl)-methyl)-2-methyl-3-oxopiperazine-1-carboxamide] | 48.5
C[C@@H]1C(=O)NCCN1C(=O)NC(c1ccc(F)c(Cl)c1F)C1CC(OC(F)F)C1 (single isomer, unassigned) [Example 39D, (2R)-N-((S or R)-(3-chloro-2,4-difluoro-phenyl)(trans-3-(difluoro-methoxy)cyclobutyL)-methyl)-2-methyl-3-oxopiperazine-1-carboxamide] | 8.1
COC1CC(C(NC(=O)N2CCNC(=O)[C@H]2C)c2ccc(F)c(Cl)c2F)C1 (single isomer, unassigned) [Example 40A, (2R)-N-((R or S)-(3-chloro-2,4-difluoro-phenyl)(trans-3-methoxy-cyclobutyl)methyl)-2-methyl-3-oxopiperazine-1-carboxamide] | 11700
COC1CC(C(NC(=O)N2CCNC(=O)[C@H]2C)c2ccc(F)c(Cl)c2F)C1 (single isomer, unassigned) [Example 40B, (2R)-N-((R or S)-(3-chloro-2,4-difluoro-phenyl)(cis-3-methoxy-cyclobutyl)methyl)-2-methyl-3-oxopiperazine-1-carboxamide] | 14500
COC1CC(C(NC(=O)N2CCNC(=O)[C@H]2C)c2ccc(F)c(Cl)c2F)C1 (single isomer, unassigned) [Example 40C, (2R)-N-((S or R)-(3-chloro-2,4-difluoro-phenyl)(cis-3-methoxycyclobutyl)-methyl)-2-methyl-3-oxopiperazine-1-carboxamide] | 362
COC1CC(C(NC(=O)N2CCNC(=O)[C@H]2C)c2ccc(F)c(Cl)c2F)C1 (single isomer, unassigned) [Example 40D, (2R)-N-((S or R)-(3-chloro-2,4-difluoro-phenyl)(trans-3-methoxycyclobutyl)-methyl)-2-methyl-3-oxopiperazine-1-carboxamide] | 108

Further lines, results first:

IC50 [nM] | SMILES
31.6 | C[C@@H]1C(=O)NCCN1C(=O)NC(c1ccc(F)c(Cl)c1F)C1CC12CC2 (single isomer, unassigned) [Example 41A, (2R)-N-((R or S)-(3-chloro-2,4-difluoro-phenyl)((R or S)-spiro[2.2]pentan-1-yl)methyl)-2-methyl-3-oxopiperazine-1-carboxamide]
1180 | C[C@@H]1C(=O)NCCN1C(=O)NC(c1ccc(F)c(Cl)c1F)C1CC12CC2 (single isomer, unassigned) [Example 41B, (2R)-N-((S or R)-(3-chloro-2,4-difluoro-phenyl)((R or S)-spiro[2.2]pentan-1-yl)methyl)-2-methyl-3-oxopiperazine-1-carboxamide]
143 | C[C@@H]1C(=O)NCCN1C(=O)NC(c1ccc(F)c(Cl)c1F)C1CC12CC2 (single isomer, unassigned) [Example 41C, (2R)-N-((R or S)-(3-chloro-2,4-difluoro-phenyl)(S or R)-spiro[2.2]pentan-1-yl)methyl)-2-methyl-3-oxopiperazine-1-carboxamide]
1060 | C[C@@H]1C(=O)NCCN1C(=O)NC(c1ccc(F)c(Cl)c1F)C1CC12CC2 (single isomer, unassigned) [Example 41D, (2R)-N-((S or R)-(3-chloro-2,4-difluoro-phenyl)((S or R)-spiro[2.2]pentan-1-yl)methyl)-2-methyl-3-oxopiperazine-1-carboxamide]
321 | C[C@@H]1C(=O)NCCN1C(=O)NC(c1ccc(F)c(Cl)c1F)C1CCC(F)(F)C1 (single isomer, unassigned) [Example 42A, (2R)-N-((R or S)-(3-choro-2,4-difluoro-phenyl)((R or S)-3,3-difluorocyclopentyl)-methyl)-2-methyl-3-oxopiperazine-1-carboxamide]
2830 | C[C@@H]1C(=O)NCCN1C(=O)NC(c1ccc(F)c(Cl)c1F)C1CCC(F)(F)C1 (single isomer, unassigned) [Example 42B, (2R)-N-((R or S)-(3-chloro-2,4-difluoro-phenyl)((S or R)-3,3-difluorocyclopentyl)-methyl)-2-methyl-3-oxopiperazine-1-carboxamide]
24.1 | C[C@@H]1C(=O)NCCN1C(=O)NC(c1ccc(F)c(Cl)c1F)C1CCC(F)(F)C1 (single isomer, unassigned) [Example 42C, (2R)-N-((S or R)-(3-chloro-2,4-difluoro-phenyl)((R or S)-(3,3-difluorocyclopentyl)-methyl)-2-methyl-3-oxopiperazine-1-carboxamide]
20.1 | C[C@@H]1C(=O)NCCN1C(=O)NC(c1ccc(F)c(Cl)c1F)C1CCC(F)(F)C1 (single isomer, unassigned) [Example 42D, (2R)-N-((S or R)-(3-chloro-2,4-difluoro-phenyl)((S or R)-3,3-difluorocyclopentyl)-methyl)-2-methyl-3-oxopiperazine-1-carboxamide]
39.6 | C[C@@H]1C(=O)NCCN1C(=O)NC(c1ccc(F)c(Cl)c1)C1CC(C(F)(F)F)C1 (single isomer, unassigned) [Example 43A, (2R)-N-((R or S)-(3-chloro-4-fluorophenyl)-(trans-3-(trifluoro-methyl)-cyclobutyl)-methyl)-2-methyl-3-oxopiperazine-1-carboxamide]
26.4 | C[C@@H]1C(=O)NCCN1C(=O)NC(c1ccc(F)c(Cl)c1)C1CC(C(F)(F)F)C1 (single isomer, unassigned) [Example 43B, (2R)-N-((R or S)-(3-chloro-4-fluorophenyl)-(cis-3-(trifluoromethyl)-cyclobutyl)methyl)-2-methyl-3-oxopiperazine-1-carboxamide]
3.2 | C[C@@H]1C(=O)NCCN1C(=O)NC(c1ccc(F)c(Cl)c1)C1CC(C(F)(F)F)C1 (single isomer, unassigned) [Example 43C, (2R)-N-((S or R)-(3-chloro-4-fluorophenyl)-(trans-3-(trifluoro-methyl)-cyclobutyl)-methyl)-2-methyl-3-oxopiperazine-1-carboxamide]
21.9 | C[C@@H]1C(=O)NCCN1C(=O)NC(c1ccc(F)c(Cl)c1)C1CC(C(F)(F)F)C1 (single isomer, unassigned) [Example 43D, (2R)-N-((S or R)-(3-chloro-4-fluorophenyl)-(cis-3-(trifluoromethyl)-cyclobutyl)methyl)-2-methyl-3-oxopiperazine-1-carboxamide]
90.5 | C[C@@H]1C(=O)NCCN1C(=O)NC(c1ccc(F)c(Cl)c1)C1CC(OCC(F)(F)F)C1 (single isomer, unassigned) [Example 44A, (2R)—N—((R or S)-(3-chloro-4-fluorophenyl)(cis-3-(2,2,2-trifluoroethoxy)cyclobutyl)methyl)-2-methyl-3-oxopiperazine-1-carboxamide]
335 | C[C@@H]1C(=O)NCCN1C(=O)NC(c1ccc(F)c(Cl)c1)C1CC(OCC(F)(F)F)C1 (single isomer, unassigned) [Example 44B, (2R)—N—((S or R)-(3-chloro-4-fluorophenyl)(cis-3-(2,2,2-trifluoroethoxy)cyclobutyl)methyl)-2-methyl-3-oxopiperazine-1-carboxamide]
172 | C[C@@H]1C(=O)NCCN1C(=O)NC(c1ccc(F)c(Cl)c1)C1CC(OCC(F)(F)F)C1 (single isomer, unassigned) [Example 44C, (2R)—N—((R or S)-(3-chloro-4-fluorophenyl)(trans-3-(2,2,2-trifluoroethoxy)cyclobutyl)methyl)-2-methyl-3-oxopiperazine-1-carboxamide]
22.7 | C[C@@H]1C(=O)NCCN1C(=O)NC(c1ccc(F)c(Cl)c1)C1CC(OCC(F)(F)F)C1 (single isomer, unassigned) [Example 44D, (2R)—N—((S or R)-(3-chloro-4-fluorophenyl)(trans-3-(2,2,2-trifluoroethoxy)cyclobutyl)methyl)-2-methyl-3-oxopiperazine-1-carboxamide]
